Patent US5869512A, “Azole compounds with antimycotic activity for human and veterinary use” (Zambon Group S.p.A, priority 1996, dated 1999)
Converted amounts (≈) assume the structure as drawn. Read-outs that look alike come from different tables or passages of the source.

Experiments:
[1] = test system: C. albicans 1040; assay: In vitro growth inhibition, macromethod of scalar broth dilution (YNB); assay type: cell-based, Candida albicans
Text: (§1) A) The activity inhibiting the growth of mycetes has been evaluated by the macromethods of the scalar broth dilution in geometrical progression (M. R. McGinnis and M. G. Rinaldi, "Antimycotic drugs: mechanisms of action, drug resistance, susceptibility testing and assay of activity in biological fluids", in Antibiotic in Laboratory Medicine, Ed. V. Lorian, Baltimore 1991).
(§2) As growing medium Yeast Nitrogen Base broth (YNB) and Sabouraud Dextrose broth (SDB) were employed for yeasts and moulds respectively.
(§3) Fluconazole has been taken as reference compound.

[2] = test system: T. mentagrophytes; assay: In vitro growth inhibition, macromethod of scalar broth dilution (SDB); assay type: cell-based, Trichophyton mentagrophytes; conditions: for MIC: Trichophyton mentagrophytes, 168 h, read-out: MIC (minimum inhibiting concentration)
Text: as §1, §2, §3

[3] = test system: C. neoformans; assay: In vitro growth inhibition, macromethod of scalar broth dilution (YNB); assay type: cell-based, Cryptococcus neoformans
Text: as §1, §2, §3

[4] = test system: Candida albicans 1040; assay: In vivo oral antimycotic effectiveness, systemic candidiasis; parameters: species or system mice (Albino Charles River, CD1 strain); conditions: mice, oral at 0, 4, 24, 48 hours after i.v. infection; for PD50 (medium protective dose) at the 14th day: 20160 min; for ED50: Candida albicans, 1040, in Mus musculus, po, 336 h, read-out: PD50 (medium protective dose) at the 14th day
Description: (§4) Albino Charles River mice (CD1 strain) weighing from 23 to 25 g, normally feed with a standard diet and water ad libitum were employed.
(§5) Each animal has been intravenously (for systemic candidiasis, crytpococcosis, aspergillosis), intracranially (for intracranial cryptococcosis) or nasally (for pulmonary aspergillosis) treated with a suspension (0.2 ml containing 2.5×10^7 cells/ml) of the due microorganism in physiological. Right after the injection and after 4, 24 and 48 hours the animals has been orally administered (in 2% Arabic gum) geometrically progressive increasing doses of the compound under test. An infected group has been used as control.
(§6) The mortality monitoring of the mice has been prolonged up to 14 days. The medium protective dose (PD50) has been calculated by the probits analysis (L. Lison--"Statistica applicata alla biologia sperimentale. La programmazione dell'esperimento e l'analisi dei risultati"--Casa Editrice Ambrosiana, 1961) on the basis of the number of animals survived at each concentration.
(§7) Fluconazole and Itraconazole were taken as reference compounds.

[5] = test system: A. fumigatus; assay: In vitro growth inhibition, macromethod of scalar broth dilution (SDB); assay type: cell-based, Aspergillus fumigatus; conditions: for MIC: Aspergillus fumigatus, 168 h, read-out: MIC (minimum inhibiting concentration)
Text: as §1, §2, §3

[6] = test system: A. fumigatus; assay: In vitro antimycotic activity, dilution in agar (mycetes); assay type: cell-based, Aspergillus fumigatus; conditions: casitone agar pH 7, 32° C., 1-10 days
Description: (§8) B) The activity inhibiting the growth of yeasts and filamentosous fungi has been evaluated by the method of the dilution in agar. The minimum inhibiting concentration at 50% (MIC50) was measured by incorporating into the growing medium decreasing concentrations of the tested compounds thus yielding scalar concentration on basis 2, from […].
(§9) As growing medium casitone agar buffered at pH=7 (casitone 9 g, glucose 20 g, sodium citrate 10 g, leaven extract 5 g, agar 18 g, potassium biphosphate 0.54 g, sodium biphosphate 3.34 g, distilled water 1,000 ml) was employed.
(§10) For evaluating the activity against the mycetes the growing mediums containing the scalar concentrations of the compounds to be tested were inoculated with 1 μl of a suspension of 5×10^5 of spores/ml (conides or endospores) obtained from duly sporulated coltures. The inoculated growing mediums were incubated at 32° C. and the measurements were effected after 1, 2, 3, 5, 7 and 10 days.
(§11) Fluconazole, Itraconazole and Amphotericin B have been taken as reference compounds.

[7] = test system: A. niger; assay: as above; assay type: cell-based, Aspergillus niger; conditions: casitone agar pH 7, 32° C., 1-10 days
Description: as §8, §9, §10, §11

[8] = test system: A. flavusalis; assay: as above; assay type: cell-based, Aspergillus flavus; conditions: casitone agar pH 7, 32° C., 1-10 days
Description: as §8, §9, §10, §11

[9] = test system: A. corymbifera; assay: as above; assay type: cell-based, Absidia corymbifera; conditions: casitone agar pH 7, 32° C., 1-10 days
Description: as §8, §9, §10, §11

[10] = test system: A. alliaceus; assay: as above; assay type: cell-based, Aspergillus alliaceus; conditions: casitone agar pH 7, 32° C., 1-10 days
Description: as §8, §9, §10, §11

[11] = test system: F. verticilloides; assay: as above; assay type: cell-based, Fusarium verticilloides; conditions: casitone agar pH 7, 32° C., 1-10 days
Description: as §8, §9, §10, §11

[12] = test system: F. proliferatum; assay: as above; assay type: cell-based, Fusarium proliferatum; conditions: casitone agar pH 7, 32° C., 1-10 days
Description: as §8, §9, §10, §11

[13] = test system: A. terreus; assay: as above; assay type: cell-based, Aspergillus terreus; conditions: casitone agar pH 7, 32° C., 1-10 days
Description: as §8, §9, §10, §11

[14] = test system: Mucor; assay: as above; assay type: cell-based; conditions: casitone agar pH 7, 32° C., 1-10 days
Description: as §8, §9, §10, §11

[15] = test system: Acremonium; assay: as above; assay type: cell-based; conditions: casitone agar pH 7, 32° C., 1-10 days
Description: as §8, §9, §10, §11

[16] = test system: Pseudoallescheria; assay: as above; assay type: cell-based; conditions: casitone agar pH 7, 32° C., 1-10 days
Description: as §8, §9, §10, §11

[17] = test system: Trichoderma; assay: as above; assay type: cell-based; conditions: casitone agar pH 7, 32° C., 1-10 days
Description: as §8, §9, §10, §11

[18] = test system: R. pusillus; assay: as above; assay type: cell-based, Rhyzomucor pusillus; conditions: casitone agar pH 7, 32° C., 1-10 days
Description: as §8, §9, §10, §11

[19] = test system: Cryptococcus neoformans ISM; assay: In vivo oral antimycotic effectiveness, intracranial cryptococcosis; parameters: species or system mice (Albino Charles River, CD1 strain); conditions: 336 h, mice, oral at 0, 4, 24, 48 hours after intracranial infection, read-out: PD50 (medium protective dose) at the 14th day
Description: as §4, §5, §6, §7

[20] = test system: Cryptococcus neoformans 3443; assay: In vivo oral antimycotic effectiveness, systemic cryptococcosis; parameters: species or system mice (Albino Charles River, CD1 strain); conditions: 336 h, mice, oral at 0, 4, 24, 48 hours after i.v. infection, read-out: PD50 (medium protective dose) at the 14th day
Description: as §4, §5, §6, §7

[21] = test system: Aspergillus fumigatus MOL-4; assay: In vivo oral antimycotic effectiveness, pulmonary aspergillosis; parameters: species or system mice (Albino Charles River, CD1 strain); conditions: MOL4, 336 h, mice, oral at 0, 4, 24, 48 hours after nasal infection, read-out: PD50 (medium protective dose) at the 14th day
Description: as §4, §5, §6, §7

[22] = test system: Aspergillus fumigatus MOL-4; assay: In vivo oral antimycotic effectiveness, systemic aspergillosis; parameters: species or system mice (Albino Charles River, CD1 strain); conditions: MOL4, 336 h, mice, oral at 0, 4, 24, 48 hours after i.v. infection, read-out: PD50 (medium protective dose) at the 14th day
Description: as §4, §5, §6, §7

[23] = C. albicans 1040, YNB, 35° C., 48 hours, 2A, 3A, 3B tested as nitrates
[24] = T. mentagrophytes, SDB, 28° C., 7 days, 2A, 3A, 3B tested as nitrates
[25] = C. neoformans, YNB, 35° C., 48 hours, 2A, 3A, 3B tested as nitrates
[26] = A. fumigatus, SDB, 28° C., 7 days, 2A, 3A, 3B tested as nitrates
[27] = Candida albicans, 1040, 48 h, C. albicans 1040, YNB, 35° C., 48 hours, 2A, 3A, 3B tested as nitrates, read-out: IC50
[28] = Cryptococcus neoformans, 48 h, C. neoformans, YNB, 35° C., 48 hours, 2A, 3A, 3B tested as nitrates, read-out: IC50

Row | Structure (SMILES) | MIC [2, 24] | IC50 [3, 28] | ED50 [4] | MIC [5, 26] | ED50 [19] | ED50 [20] | ED50 [21] | ED50 [22] | other results
1 | CC(C)(COC(F)(F)C(F)F)C(O)(Cn1cncn1)c1ccc(F)cc1F (single isomer, unassigned; (-)) [Compound 1A, (-) 2-(2,4-difluorophenyl)-4-(1,1,2-tetrafluoroethoxy)-3,3-dimethyl-1-(1H-1,2,4-triazol-1-yl)-2-butanol] |  |  |  |  |  |  |  |  | IC50 [1, 23]: 0.0078 µg/mL (≈ 0.0196 µM); MIC (minimum inhibiting concentration) [2, 24]: 0.125 µg/mL (≈ 0.315 µM); IC50 [3, 25]: 0.0078 µg/mL (≈ 0.0196 µM); PD50 (medium protective dose) at the 14th day [4]: 0.64 mg/kg/os; MIC (minimum inhibiting concentration) [5, 26]: 4 µg/mL (≈ 10.1 µM)
2 | C[C@H](COC(F)(F)C(F)F)[C@@](O)(Cn1cncn1)c1ccc(Cl)cc1Cl [Compound 3B, (+) (2S,3R)-2-(2,4-dichlorophenyl)-4-(1,1,2,2-tetrafluoroethoxy)-3-methyl-1-(1H-1,2,4-triazol-1-yl)-2-butanol] | 16 µg/mL (≈ 38.4 µM) | 1 µg/mL (≈ 2.4 µM) | 4.57 mg/kg | > 128 µg/mL |  |  |  |  | IC50 [1, 27]: 0.25 µg/mL (≈ 0.601 µM)
3 | C[C@@H]1[C@H](O)[C@@H](C)/C=C/C=C/C=C/C=C/C=C/C=C/C=C/[C@H](O[C@@H]2O[C@H](C)[C@@H](O)[C@H](N)[C@@H]2O)C[C@@H]2O[C@](O)(C[C@@H](O)C[C@@H](O)[C@H](O)CC[C@@H](O)C[C@@H](O)CC(=O)O[C@H]1C)C[C@H](O)[C@H]2C(=O)O [Amphotericin B] |  |  |  |  |  |  |  |  | MIC50 [6]: 0.25 µg/mL (≈ 0.271 µM); MIC50 [7]: 0.12 µg/mL (≈ 0.13 µM); MIC50 [8]: 0.25 µg/mL (≈ 0.271 µM); MIC50 [9]: 0.06 µg/mL (≈ 0.0649 µM); MIC50 [10]: 16 µg/mL (≈ 17.3 µM); MIC50 [11]: 2 µg/mL (≈ 2.16 µM); MIC50 [12]: 1 µg/mL (≈ 1.08 µM); MIC50 [13]: 0.25 µg/mL (≈ 0.271 µM); MIC50 [14]: 0.03 µg/mL (≈ 0.0325 µM); MIC50 [15]: 16 µg/mL (≈ 17.3 µM); MIC50 [16]: 8 µg/mL (≈ 8.66 µM); MIC50 [17]: 1 µg/mL (≈ 1.08 µM); MIC50 [18]: 0.06 µg/mL (≈ 0.0649 µM)
4 | CCC(C)n1ncn(-c2ccc(N3CCN(c4ccc(OCC5COC(Cn6cncn6)(c6ccc(Cl)cc6Cl)O5)cc4)CC3)cc2)c1=O (stereo not shown) [Itraconazole, reference compound] |  |  | 1.74 mg/kg |  | > 25 mg/kg | > 50 mg/kg | > 20 mg/kg | 10.2 mg/kg | 
5 | C[C@@H](COC(F)(F)C(F)F)[C@](O)(Cn1cncn1)c1ccc(Cl)cc1Cl [Compound 3A, (-) (2R,3S)-2-(2,4-dichlorophenyl)-4-(1,1,2,2-tetrafluoroethoxy)-3-methyl-1-(1H-1,2,4-triazol-1-yl)-2-butanol] | 0.0625 µg/mL (≈ 0.15 µM) | 0.0078 µg/mL (≈ 0.0187 µM) | 0.38 mg/kg | 2 µg/mL (≈ 4.81 µM) | 12.5 mg/kg | 5.48 mg/kg | 6.9 mg/kg | 4.5 mg/kg | IC50 [1, 27]: 0.0078 µg/mL (≈ 0.0187 µM)
6 | CC(C)(COC(F)(F)C(F)F)C(O)(Cn1cncn1)c1ccc(F)cc1F (single isomer, unassigned; (+)) [Compound 1B] |  |  |  |  |  |  |  |  | IC50 [1, 23]: 1 µg/mL (≈ 2.52 µM); MIC (minimum inhibiting concentration) [2, 24]: 32 µg/mL (≈ 80.5 µM); IC50 [3, 25]: 1 µg/mL (≈ 2.52 µM); PD50 (medium protective dose) at the 14th day [4]: > 2 mg/kg/os; MIC (minimum inhibiting concentration) [5, 26]: > 128 µg/mL
7 | OC(Cn1cncn1)(Cn1cncn1)c1ccc(F)cc1F [Fluconazole, reference compound] |  |  | 0.61 mg/kg |  | 22.3 mg/kg | 63.2 mg/kg | > 100 mg/kg |  | IC50 ([1]; Candida albicans, 1040, 48 h): 0.5 µg/mL (≈ 1.63 µM); MIC [2]: 16 µg/mL (≈ 52.2 µM); IC50 ([3]; Cryptococcus neoformans, 48 h): 2 µg/mL (≈ 6.53 µM); MIC [5]: > 128 µg/mL
8 | C[C@@H](COC(F)(F)C(F)F)[C@](O)(Cn1cncn1)c1ccc(F)cc1F [Compound 2A, (-) (2R,3S)-2-(2,4-difluorophenyl)-4-(1,1,2,2-tetrafluoroethoxy)-3-methyl-1-(1H-1,2,4-triazol-1-yl)-2-butanol] | 0.25 µg/mL (≈ 0.652 µM) | 0.0312 µg/mL (≈ 0.0814 µM) | 0.32 mg/kg | 8 µg/mL (≈ 20.9 µM) | 14.6 mg/kg | 8.84 mg/kg | 9.3 mg/kg | 3.5 mg/kg | 
